Results on 1 molecule are retold here after patent US20250073220A1, “ORAL SOLUTION COMPRISING LENALIDOMIDE” (A FINE HOUSE S.A., priority 2021, published 2025).

≈ marks a conversion by molar mass, not a printed value.

The conditions of data set [1]: 0.1 N HCl aqueous solution (pH around 1); cited from earlier work.
Data set [2] can be described thus: Precipitation after preparation of liquid lenalidomide compositions. Type of data set: physicochemical. The conditions noted are these: a few minutes after lenalidomide was dissolved in an aqueous buffer at pH between 1.0 and 3.5. The protocol: A composition was prepared according to example 23 of WO 1998/03502. The solution contained 5.0 g lenalidomide, 22.5 g sodium chloride, 300.0 g phosphate buffer with pH 7.4 and demineralized water. The pH of the final composition was 7.4.
Similar results (i.e. precipitation) were obtained a few minutes after lenalidomide was dissolved in an aqueous buffer at pH between 1.0 and 3.5.
Thus, the composition of Trial 0 was not subjected to the stability study.
The composition of trial 4 was not subjected to the stability study.

Take `Nc1cccc2c1CN(C1CCC(=O)NC1=O)C2=O` (racemic) [Lenalidomide, 1-oxo-(2,6-dioxopiperidin-3-yl)-4-aminoisoindoline]: in data set [1], the solubility is 18.0 mg/mL (≈ 69.4 mM). The precipitation after dissolution result in data set [2] was “precipitation”.
